Earlier results in US9801907B2, “Film-coated and/or granulated calcium-containing compounds and use therof in pharmaceutical compositions” (Takeda Nycomed AS, priority 2005, dated 2017).

Columns and labels:
[1] = parts substance in parts water
[2] = annual injections of 150.000-300.000 IU; not in the rate of hip fracture

Molecule	Solubility in water at 20° C. [1]	overall fracture rate [2]
OC[C@@H](O)[C@@H](O[C@H]1O[C@H](CO)[C@@H](O)[C@H](O)[C@H]1O)[C@H](O)[C@@H](O)CO [Maltitol]	Freely soluble	–
Maltodextrins	Freely soluble	–
vitamin D	–	significant reduction
